Consider one compound from patent US20080207496A1, “ORGANIC COMPOUND” (priority 2003, published 2008).

Molecules are shown by their SMILES. Where two headings read alike, the source gives them in different places.

In data set [1] the test system is IFN-gamma production by CD3+ T cells. Particulars: at concentrations less than 0.5 mM.
Data set [2] deals with T1, calcium-independent protein kinase C isoform ε (Homo sapiens, UniProt Q02156).
T1 sequence (Q02156 1-737): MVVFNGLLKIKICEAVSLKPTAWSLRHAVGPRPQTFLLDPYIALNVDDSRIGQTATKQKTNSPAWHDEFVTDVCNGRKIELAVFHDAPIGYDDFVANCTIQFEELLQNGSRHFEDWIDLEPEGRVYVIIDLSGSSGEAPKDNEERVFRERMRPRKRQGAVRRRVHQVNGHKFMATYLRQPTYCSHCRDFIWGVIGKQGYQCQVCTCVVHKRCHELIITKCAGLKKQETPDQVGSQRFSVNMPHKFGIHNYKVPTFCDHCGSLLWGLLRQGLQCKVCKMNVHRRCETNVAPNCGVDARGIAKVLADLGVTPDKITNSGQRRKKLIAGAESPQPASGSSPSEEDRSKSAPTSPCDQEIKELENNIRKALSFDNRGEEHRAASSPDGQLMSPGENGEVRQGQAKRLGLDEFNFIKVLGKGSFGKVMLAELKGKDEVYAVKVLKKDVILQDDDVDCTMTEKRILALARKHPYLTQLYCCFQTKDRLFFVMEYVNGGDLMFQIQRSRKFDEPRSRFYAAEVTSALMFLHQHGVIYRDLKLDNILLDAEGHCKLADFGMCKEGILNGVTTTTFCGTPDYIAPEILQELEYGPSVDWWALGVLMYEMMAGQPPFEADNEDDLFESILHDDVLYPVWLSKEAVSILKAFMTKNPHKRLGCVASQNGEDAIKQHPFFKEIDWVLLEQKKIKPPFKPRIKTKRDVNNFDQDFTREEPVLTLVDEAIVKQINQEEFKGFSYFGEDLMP
As to conditions: cited from earlier work.

The target in data set [3] is conventional protein kinase C isoform γ (Homo sapiens, UniProt P05129). As to conditions: cited from earlier work.
Data set [4] concerns Peripheral blood mononuclear cells (PBMCs). Particulars: ConA +.
For data set [5], the target named is conventional protein kinase C isoform α (Homo sapiens, UniProt P17252). As to conditions: cited from earlier work.
Data set [6] has as its target conventional protein kinase C isoform β (Homo sapiens, UniProt P05771). As to conditions: cited from earlier work.
The nature of data set [7]: Phase I and II studies in patients with advanced cancer. In kind it is in vivo, human. Particulars: oral doses at 150 to 300 mg/day.
For data set [8], the target named is calcium-independent protein kinase C isoform η (Homo sapiens, UniProt P24723). As to conditions: cited from earlier work.
Data set [9] has as its target calcium-independent protein kinase C isoform δ (Homo sapiens, UniProt Q05655). Particulars: cited from earlier work.
For data set [10], the system named is peripheral blood mononuclear cells. The experiment in a line: Intracellular calcium kinetics after PHA, flow cytometry (fluo-4/Fura-red). In kind it is cell-based, human. As to conditions: PHA 20 μg/ml; at micromolar concentrations. In general terms: Calcium assays in cells follow changes in intracellular calcium, usually with a dye or a luminescent sensor.
Procedure: Intracellular Calcium Kinetics. Human PBMC's are resuspended in calcium-free PBS and loaded with the calcium indicator dyes Fura-red and fluo-4 for 1 hour at room temperature shielded from light. […] At the end of dye loading, cells are washed in PBS and resuspended in RPMI 1640 and placed in growth conditions. One million cells of each sample are then analyzed by a flow cytometer and the mean FL-1 and FL-3 channels recorded every 8 seconds for a total of 240 seconds. At least eight thousand events are acquired during each eight-second interval. PHA (20 μg/ml) was added to activate T cells at time 0 seconds. The ratio FL-1/FL-3 is directly related to the intracellular calcium concentration and is expressed in arbitrary units (AU).
The test system of data set [11] is IL-2 production by CD3+ T cells. As to conditions: at concentrations less than 0.5 mM.

conventional protein kinase C isoform β, sequence (P05771 whole entry, canonical isoform): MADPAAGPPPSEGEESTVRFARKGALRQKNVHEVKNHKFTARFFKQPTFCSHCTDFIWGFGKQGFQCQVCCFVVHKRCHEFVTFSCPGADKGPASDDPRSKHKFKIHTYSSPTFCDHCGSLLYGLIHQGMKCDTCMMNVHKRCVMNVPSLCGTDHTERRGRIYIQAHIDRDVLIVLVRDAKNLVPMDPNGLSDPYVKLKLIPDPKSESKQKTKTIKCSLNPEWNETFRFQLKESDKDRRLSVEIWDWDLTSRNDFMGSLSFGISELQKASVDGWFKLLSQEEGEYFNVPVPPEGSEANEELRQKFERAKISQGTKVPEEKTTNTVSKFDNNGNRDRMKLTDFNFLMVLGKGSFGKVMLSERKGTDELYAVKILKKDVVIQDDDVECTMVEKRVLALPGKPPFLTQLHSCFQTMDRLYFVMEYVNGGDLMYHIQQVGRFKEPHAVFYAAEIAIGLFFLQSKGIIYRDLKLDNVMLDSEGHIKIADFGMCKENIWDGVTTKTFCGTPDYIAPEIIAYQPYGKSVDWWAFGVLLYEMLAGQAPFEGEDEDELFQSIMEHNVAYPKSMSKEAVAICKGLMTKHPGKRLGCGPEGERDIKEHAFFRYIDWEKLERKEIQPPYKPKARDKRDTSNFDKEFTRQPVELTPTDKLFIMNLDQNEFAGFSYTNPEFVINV
calcium-independent protein kinase C isoform δ, sequence (Q05655 whole entry, canonical isoform): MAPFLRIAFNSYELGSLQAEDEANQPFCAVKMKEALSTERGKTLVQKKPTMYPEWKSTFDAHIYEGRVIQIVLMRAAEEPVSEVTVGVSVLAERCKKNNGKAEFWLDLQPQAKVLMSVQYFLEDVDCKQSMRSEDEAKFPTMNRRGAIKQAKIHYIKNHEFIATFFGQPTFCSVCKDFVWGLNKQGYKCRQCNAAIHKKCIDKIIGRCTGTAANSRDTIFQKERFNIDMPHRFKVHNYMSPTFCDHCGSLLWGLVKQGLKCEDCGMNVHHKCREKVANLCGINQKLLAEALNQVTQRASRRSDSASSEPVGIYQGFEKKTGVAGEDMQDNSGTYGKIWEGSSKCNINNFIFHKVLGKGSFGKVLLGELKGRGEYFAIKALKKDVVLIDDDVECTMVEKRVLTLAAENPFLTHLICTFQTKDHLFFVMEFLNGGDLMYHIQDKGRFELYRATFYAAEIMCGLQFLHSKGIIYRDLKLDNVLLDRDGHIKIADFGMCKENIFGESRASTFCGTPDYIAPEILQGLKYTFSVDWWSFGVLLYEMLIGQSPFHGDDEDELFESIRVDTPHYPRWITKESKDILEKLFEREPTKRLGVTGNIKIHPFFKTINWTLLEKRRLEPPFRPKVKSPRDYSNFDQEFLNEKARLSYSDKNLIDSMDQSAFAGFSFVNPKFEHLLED
calcium-independent protein kinase C isoform η, sequence (P24723 whole entry, canonical isoform): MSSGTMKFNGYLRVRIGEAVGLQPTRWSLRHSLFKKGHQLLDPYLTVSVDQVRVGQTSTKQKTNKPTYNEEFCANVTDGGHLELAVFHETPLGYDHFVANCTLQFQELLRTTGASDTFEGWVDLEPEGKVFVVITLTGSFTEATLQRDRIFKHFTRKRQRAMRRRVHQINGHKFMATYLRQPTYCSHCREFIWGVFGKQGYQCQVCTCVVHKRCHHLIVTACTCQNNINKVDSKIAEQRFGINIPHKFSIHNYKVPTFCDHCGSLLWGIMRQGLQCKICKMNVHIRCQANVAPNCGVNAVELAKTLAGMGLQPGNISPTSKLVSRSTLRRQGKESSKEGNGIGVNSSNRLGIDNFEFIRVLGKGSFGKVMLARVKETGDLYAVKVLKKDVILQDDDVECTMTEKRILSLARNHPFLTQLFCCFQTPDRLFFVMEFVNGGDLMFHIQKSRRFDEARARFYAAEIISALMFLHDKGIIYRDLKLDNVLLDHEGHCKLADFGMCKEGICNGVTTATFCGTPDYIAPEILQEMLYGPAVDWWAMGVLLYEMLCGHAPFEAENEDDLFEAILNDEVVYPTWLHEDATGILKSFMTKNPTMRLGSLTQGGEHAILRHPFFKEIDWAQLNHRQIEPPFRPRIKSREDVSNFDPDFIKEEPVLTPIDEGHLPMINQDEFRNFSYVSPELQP

`CO[C@@H]1[C@H](N(C)C(=O)c2ccccc2)C[C@H]2O[C@]1(C)n1c3ccccc3c3c4c(c5c6ccccc6n2c5c31)C(=O)NC4` [Compound I, midostaurin]: the “effect on IFN-gamma production by CD3+ T cells” value in data set [1] is given as “slightly increases”. The “inhibition of protein kinase C isoform ε (inhibitory concentration)” value in data set [2] is on record as “nanomolar concentrations”. Further, the “inhibition of protein kinase C isoform γ (inhibitory concentration)” value in [3] is on record as “nanomolar concentrations”. Also, the “cpm (mean 3H-thymidine incorporation)” value in data set [4] (C I 0.05 mM with CsA 50 ng/ml) amounted to 8472 cpm; in data set [4] (C I 0.05 mM with CsA 100 ng/ml), 7307 cpm; in data set [4] (C I 0.05 mM, no CsA), 11944 cpm; in data set [4] (C I 0.1 mM with CsA 50 ng/ml), 5260 cpm; in data set [4] (C I 0.1 mM with CsA 100 ng/ml) it was 3162 cpm; in data set [4] (C I 0.1 mM, no CsA), 9005 cpm. Also, the “cpm (mean 3H-thymidine incorporation)” value is 1082 cpm in [4] (C I 1 mM with CsA 50 ng/ml); 642 cpm in data set [4] (C I 1 mM with CsA 100 ng/ml); 2556 cpm in data set [4] (C I 1 mM, no CsA). The “inhibition of protein kinase C isoform α (inhibitory concentration)” value in data set [5] is “nanomolar concentrations”. In addition, the “inhibition of protein kinase C isoform β (inhibitory concentration)” value in [6] is reported as “nanomolar concentrations”. In addition, the serum levels entry in data set [7] is reported as “micromolar range”. Moreover, the “inhibition of protein kinase C isoform η (inhibitory concentration)” value in [8] is given as “nanomolar concentrations”. Also, in data set [9], the “inhibition of protein kinase C isoform δ (inhibitory concentration)” value is “nanomolar concentrations”. Moreover, the “intracellular calcium response to PHA” value in [10] is reported as “blunts”. In [11], the “effect on IL-2 production by CD3+ T cells” value is listed as “slightly increases”.
